Measurements: patent publication US20230304010A1, “COMPOSITIONS AND METHODS FOR TREATING VIRAL INFECTIONS” (priority 2020, published 2023)
Ends that are not written are not given here.

How the values were obtained:
[1] = tested on: SARS-CoV-2 variants (Alpha/Beta/Delta); format: cell-based
[2] = tested on: ACE2 : SARS-CoV-2 Spike Alpha (B1.1.7/United Kingdom) variant; format: binding; settings: read-out: IC50, Alpha (B117)
[3] = tested on: ACE2 : SARS-CoV-2 Spike Beta (B1.351/South Africa) variant; format: binding; settings: read-out: IC50, Beta (B1312)
[4] = tested on: ACE2 : SARS-CoV-2 Spike Delta (B1 617 2/India) variant; format: binding; settings: read-out: IC50, Delta (B1617)
[5] = tested on: ACE2 : SARS-CoV-2 Spike Epsilon (B1429) variant; format: binding
[6] = tested on: ACE2 : SARS-CoV-2 Spike Gamma (P1/Brazil) variant; format: binding

In the case of “Ac-KTFLDKFNHEAEDLFPGPKWSAFLKEQSTLAQMYG [Seq28]”, the “fold stronger anti-SARS-CoV-2 activity than Remdesivir” value [1] is reported as 200 fold, the IC50 [2] is reported as 24.6 ± 11 nM and the IC50 [3] is reported as 31.5 ± 5 nM. The IC50 [4] was 29.2 ± 11 nM, the IC50 [5] was 28.8 ± 7 nM and the IC50 [6] was 41.7 ± 11 nM.
